The values below come from ChEMBL document CHEMBL3421618, “2,6,9-Trisubstituted purines as CRK3 kinase inhibitors with antileishmanial activity in vitro” (Bioorg Med Chem Lett, 2015).

In general, inhibition refers to the change of the read-out against control, counted positive when it falls. What is called viability is a read-out of living cells in per cent, often relative to untreated cells. In general, IC50 refers to the midpoint of a concentration-inhibition curve.

The subject of data set [1] is Leishmania. To be noted: at 30 µM.
Description: Inhibition of Leishmania CRK3/CYC6 using histone H1/[gamma33-P]ATP as substrate at 30 uM after 30 mins relative to control
The nature of data set [2]: Cytotoxicity against human BJ cells assessed as cell viability at 30 uM after 72 hrs by fluorescence assay relative to control.
In data set [3] the test system is Leishmania major. The experiment in a line: Leshmanicidal activity against promastigote stage of Leishmania major MHOM/IL/2003/LRC-L1025 […] after 72 hrs by alamar blue staining-based fluorescence assay. It counts as functional, organism-based. Particulars: MHOM/IL/2003/LRC-L1025, 72 h.
A short description of data set [4]: Inhibition of Leishmania CRK3/CYC6 using histone H1/[gamma33-P]ATP as substrate after 30 mins.
In data set [5] the test system is Leishmania donovani. Briefly: Leshmanicidal activity against promastigote stage of Leishmania donovani MHOM/SD/1962/1S-c12d […] after 72 hrs by alamar blue staining-based fluorescence assay. It counts as functional, organism-based.
Data set [6] in a line: Leshmanicidal activity against promastigote stage of Leishmania turanica MRHO/MN/08/BZ18 after 72 hrs by alamar blue staining-based fluorescence assay. Format: functional.

The structures appear in SMILES notation.

For the compound `COc1cccc(CNc2nc(N[C@@H]3CCCC[C@H]3N)nc3c2ncn3C(C)C)c1O`, the inhibition in data set [1] amounted to 33.6%. Besides, in data set [2] (BJ cells), the viability at 72 h, 30 µM is 87.4%.
With `CC[C@H](CO)Nc1nc(NCc2cccc(OC)c2O)c2ncn(C(C)C)c2n1`, the IC50 in data set [3] was 98.5 µM; in data set [4] it was 0.641 µM; in data set [5] it was 95.9 µM; in data set [6], 35.4 µM. This compound also yielded an inhibition in data set [1] of 2%. The viability at 72 h, 30 µM in data set [2] (BJ cells) turned out to be 89%.
Regarding `CC(C)n1cnc2c(NCc3ccccc3)nc(NCCOCCO)nc21`, the inhibition in data set [1] stood at 56.5%. Also, the viability at 72 h, 30 µM in data set [2] (BJ cells) was 69.9%.
On to `CC[C@H](CO)Nc1nc(NCc2ccccc2O)c2ncn(C(C)C)c2n1` [OLOMOUCINE II], for which the concentration for half-maximal inhibition (IC50) is 47.2 µM in data set [3], 0.59 µM in data set [4], 62.4 µM in data set [5] and 11.9 µM in data set [6]. Also, the inhibition in data set [1] was found to be 1.8%. Also, the viability at 72 h, 30 µM in data set [2] (BJ cells) is 79.8%.
Compound `CC(C)n1cnc2c(NCc3ccccc3)nc(NC[C@H](O)CN)nc21` returned an inhibition in data set [1] of 43.2%. In addition, the viability at 72 h, 30 µM in data set [2] (BJ cells) is 74.5%.
For the compound `CC(C)n1cnc2c(NCc3ccccc3)nc(NCCCCCC#N)nc21`, the inhibition in data set [1] was found to be 49%. The viability at 72 h, 30 µM in data set [2] (BJ cells) was determined as 77.8%.
In data set [1], `CC[C@H](CO)Nc1nc(NCc2ccccc2)c2ncn(C(C)C)c2n1` [SELICICLIB] yielded an inhibition of 38.6%. Further, the viability at 72 h, 30 µM in data set [2] (BJ cells) was determined as 106%.
Compound `CC[C@H](CO)Nc1nc(NCc2cccc(O)c2)c2ncn(C(C)C)c2n1` registered an inhibition in data set [1] of 36.4%. Also, the viability at 72 h, 30 µM in data set [2] (BJ cells) is 85.6%.
For `CC(C)n1cnc2c(NCc3ccccc3)nc(NCCN)nc21` the same measures were 57.5% and 95.2%.
In data set [1], `CC(C)n1cnc2c(NCc3ccccc3O)nc(NCCCO)nc21` yielded an inhibition of 10.5%. Also, in data set [2] (BJ cells), the viability at 72 h, 30 µM was found to be 85%.
`CC[C@H](CO)Nc1nc(NCc2cc(OC)c(O)c(OC)c2)c2ncn(C(C)C)c2n1` came in with an inhibition in data set [1] of 8.3%. The viability at 72 h, 30 µM in data set [2] (BJ cells) was 103%.
Consider `CC(C)n1cnc2c(NCc3ccc(O)cc3)nc(NCCCO)nc21`, for which the inhibition in data set [1] came out at 53.3%. Moreover, the viability at 72 h, 30 µM in data set [2] (BJ cells) stood at 84.9%.
For `CC(C)n1cnc2c(NCc3ccccc3O)nc(N[C@H]3CC[C@H](N)CC3)nc21`, in that order: 12.2% and 90.4%.
Consider `CC(C)n1cnc2c(NCc3ccccc3)nc(NCCCO)nc21` [BOHEMINE], for which the inhibition in data set [1] came out at 49.2%. Besides, the viability at 72 h, 30 µM in data set [2] (bj) was 120%.
`CC(C)n1cnc2c(NCc3ccccc3)nc(NCCCN)nc21` returned an inhibition in data set [1] of 46.2%. Besides, the viability at 72 h, 30 µM in data set [2] (BJ cells) was determined as 100%.
As for `CCOC(=O)c1ccc(Nc2nc(N[C@H](CC)CO)nc3c2ncn3C(C)C)cc1`, the inhibition in data set [1] was determined as 5.6%. In addition, in data set [2] (BJ cells), the viability at 72 h, 30 µM amounted to 70.1%.
`CC(C)n1cnc2c(NCc3ccccc3)nc(NCCO)nc21` showed an inhibition in data set [1] of 66.6%. For the same compound, the viability at 72 h, 30 µM in data set [2] (BJ cells) is 74.2%.
As for `CC[C@H](CO)Nc1nc(NCc2cc(O)ccc2O)c2ncn(C(C)C)c2n1`, the IC50 in data set [4] is 0.384 µM; in data set [6] it was more than 50 µM. In addition, the inhibition in data set [1] came out at 1.5%. Also, the viability at 72 h, 30 µM in data set [2] (BJ cells) amounted to 97.7%.
For `COc1cccc(CNc2nc(N[C@H]3CC[C@H](N)CC3)nc3c2ncn3C(C)C)c1O`, in data set [1], the inhibition is 10.8%. Moreover, in data set [2] (BJ cells), the viability at 72 h, 30 µM was determined as 87.9%.
Regarding `CC[C@H](CO)Nc1nc(NCc2cccc(C)c2O)c2ncn(C(C)C)c2n1`, the IC50 stood at 19.8 µM in data set [3], 1.65 µM in data set [4], 12.4 µM in data set [5] and 23 µM in data set [6]. Moreover, the inhibition in data set [1] was 3.3%. Also, the viability at 72 h, 30 µM in data set [2] (BJ cells) is 82.9%.
For `CC(C)n1cnc2c(NCc3ccccc3)nc(NC[C@H](C)O)nc21`, in data set [1], the inhibition was found to be 53.9%. Moreover, the viability at 72 h, 30 µM in data set [2] (BJ cells) worked out at 94.7%.
Compound `CC(C)n1cnc2c(NCc3ccccc3O)nc(NCc3ccccc3O)nc21` displayed an inhibition in data set [1] of 37.8%. The viability at 72 h, 30 µM in data set [2] (BJ cells) turned out to be 97.5%.
Turning to `CC[C@H](CO)Nc1nc(Nc2ccc(S(N)(=O)=O)cc2)c2ncn(C(C)C)c2n1`, the IC50 was 0.214 µM in data set [4] and more than 50 µM in data set [6]. In data set [1], this compound came in with an inhibition of 2.2%. Also, in data set [2] (BJ cells), the viability at 72 h, 30 µM stood at 76.7%.
`CC[C@H](CO)Nc1nc(NCc2ccccc2N)c2ncn(C(C)C)c2n1` yielded an inhibition in data set [1] of 9.8%. The viability at 72 h, 30 µM in data set [2] (BJ cells) stood at 95.7%.
The compound `CC(C)n1cnc2c(NCc3ccccc3)nc(N(CCO)CCO)nc21` had an inhibition in data set [1] of 47.1%. In data set [2] (BJ cells), the viability at 72 h, 30 µM is 133%.
With `CC(C)n1cnc2c(NCc3cccc(O)c3)nc(NCCCO)nc21`, in data set [1], the inhibition was determined as 64.6%. The viability at 72 h, 30 µM in data set [2] (BJ cells) came to 74.6%.
The compound `CC[C@H](CO)Nc1nc(NCc2ccc(O)cc2)c2ncn(C(C)C)c2n1` came in with an inhibition in data set [1] of 21.3%. Moreover, the viability at 72 h, 30 µM in data set [2] (BJ cells) came out at 91.6%.
On to `CC[C@H](CO)Nc1nc(NCc2ccc(OC)cc2O)c2ncn(C(C)C)c2n1`, for which the inhibition in data set [1] was 53.1%. The viability at 72 h, 30 µM in data set [2] (BJ cells) was found to be 82.3%.
For `CC(C)n1cnc2c(NCc3ccccc3O)nc(N3CCN(CC#N)CC3)nc21` the same measures were 71.7% and 91.8%.
Regarding `CC[C@H](CO)Nc1nc(Nc2ccc(S(=O)(=O)Nc3nc(C)cc(C)n3)cc2)c2ncn(C(C)C)c2n1`, the inhibition in data set [1] was 1.2%. In addition, the viability at 72 h, 30 µM in data set [2] (BJ cells) amounted to 105%.
Regarding `CC(C)n1cnc2c(NCc3ccccc3)nc(N)nc21`, in data set [1], the inhibition amounted to 87.1%. Also, in data set [2] (BJ cells), the viability at 72 h, 30 µM stood at 72.2%.
Consider `CC[C@H](CO)Nc1nc(NCc2ccc(Br)cc2)c2ncn(C(C)C)c2n1`, for which the concentration for half-maximal inhibition (IC50) worked out at 19.4 µM in data set [3], 16.8 µM in data set [5] and 20.1 µM in data set [6]. Besides, the inhibition in data set [1] amounted to 10%. For the same compound, the viability at 72 h, 30 µM in data set [2] (BJ cells) amounted to 92.3%.
`CC[C@H](CO)Nc1nc(Nc2ccc(S(=O)(=O)NC(=N)N)cc2)c2ncn(C(C)C)c2n1`: the half-maximal inhibitory concentration (IC50) in data set [4] is 0.115 µM; in data set [6], more than 50 µM. Also, the inhibition in data set [1] stood at 0.3%. In addition, the viability at 72 h, 30 µM in data set [2] (BJ cells) worked out at 84.4%.
In the case of `CC[C@H](CO)Nc1nc(NCc2cc(C)ccc2O)c2ncn(C(C)C)c2n1`, the concentration for half-maximal inhibition (IC50) worked out at 2.3 µM in data set [3], 0.162 µM in data set [4], 2.2 µM in data set [5] and 11.8 µM in data set [6]. The compound further displayed an inhibition in data set [1] of 0.4%. Further, in data set [2] (BJ cells), the viability at 72 h, 30 µM was determined as 70.4%.
In data set [1], `CC[C@H](CO)Nc1nc(NC(CO)c2ccccc2)c2ncn(C(C)C)c2n1` (stereo not given in full) registered an inhibition of 33.5%. For the same compound, the viability at 72 h, 30 µM in data set [2] (BJ cells) worked out at 102%.
Consider `CC[C@H](CO)Nc1nc(NCc2cc(O)cc(O)c2)c2ncn(C(C)C)c2n1`, for which the inhibition in data set [1] came out at 15.9%. For the same compound, the viability at 72 h, 30 µM in data set [2] (BJ cells) worked out at 83.9%.
With `CC[C@H](CO)Nc1nc(NCc2cccc(O)c2O)c2ncn(C(C)C)c2n1`, the figures for the half-inhibitory concentration (IC50) in data set [4] and in data set [6] were 0.314 µM and more than 50 µM, respectively. This compound also registered an inhibition in data set [1] of 2.6%. Moreover, the viability at 72 h, 30 µM in data set [2] (BJ cells) stood at 80.1%.
`CC(C)n1cnc2c(NCc3ccccc3O)nc(N[C@@H]3CCCC[C@H]3N)nc21`: in data set [1], the inhibition is 29.4%. Also, the viability at 72 h, 30 µM in data set [2] (BJ cells) was determined as 98.7%.
For the compound `CC(C)n1cnc2c(NCc3ccccc3O)nc(N3CCNCC3)nc21`, the inhibition in data set [1] amounted to 55.6%. The viability at 72 h, 30 µM in data set [2] (BJ cells) was 127%.
